Reference: patent US9056840B2, “Coelenterazine analogues and coelenteramide analogues” (JNC Corporation, priority 2010, dated 2015)

Experiments:
Assay type in all cases: physicochemical
apoaequorin [1] = target: T1, apoaequorin (Aequorea victoria, UniProt P07164); assay: Fluorescence spectra of semi-synthetic BFP (coelenteramide analogue + apoaequorin, CaCl2); conditions: 10 mM CaCl2 buffer, excitation 337 nm
T1 construct: purchased Chisso Corporation
Method: Semi-synthetic gFP was prepared from recombinant apoaequorin and coelenteramide analogues as follows. In 1 ml of 50 mM Tris-HC 1 (pH 7.6) containing 10 mM CaCl2 and 1 mM DTT, apoaequorin (0.2 mg) was mixed with 8 μl of a coelenteramide analogue (1 μg/μl in anhydrous methanol). The mixture was allowed to stand at 4° C. for 16 hours to prepare semi-synthetic BFP-like protein (hereinafter sometimes simply referred to as “semi-synthetic BFP”).
(§1) The fluorescence spectra were determined as follows. For coelenteramide analogue alone, the fluorescence was measured according to the procedures for semi-synthetic gFP and semi-synthetic BFP described in EXAMPLES 11 and 12, except for in the absence of apoaequorin, using 1 ml of 50 mM Tris-HCl (pH 7.6) containing 10 mM EDTA and 1 mM DTT or 1 ml of 50 mM Tris-HCl (pH 7.6) containing 10 mM CaCl2 and 1 mM DTT, in the final concentration of coelenteramide analogue adjusted to 8 μg/ml. The fluorescence spectra were measured at 25° C. in a quartz cell (10 mm light path length) using a Jasco FP-6500 spectrofluorometer (excitation wavelength: 337 nm, emission/excitation bandwidth: 3 nm; response: 0.5 sec, scan speed, 1000 nm/min).

[2] = Fluorescence spectra of coelenteramide analogue alone (absence of apoaequorin); conditions: analogue alone 8 μg/ml; for Coelenteramide (Buffer containing CaCl2) Fluorescence intensity (rlu) / Coelenteramide (Buffer containing CaCl2) Maximum fluorescence wavelength λmax (nm): 10 mM CaCl2 buffer pH 7.6, excitation 337 nm; for Coelenteramide (EDTA-containing buffer) Fluorescence intensity (rlu) / Coelenteramide (EDTA-containing buffer) Maximum fluorescence wavelength λmax (nm): 10 mM EDTA buffer pH 7.6, excitation 337 nm
Method: as §1

apoaequorin [3] = target: T1, apoaequorin; assay: Fluorescence spectra of semi-synthetic gFP (coelenteramide analogue + apoaequorin, EDTA); conditions: 10 mM EDTA buffer, excitation 337 nm
Method: Semi-synthetic gFP was prepared from recombinant apoaequorin and coelenteramide analogues as follows. In 1 ml of 50 mM Tris-HC 1 (pH 7.6) containing 10 mM EDTA and 1 mM DTT, apoaequorin (0.2 mg) was mixed with 8 μl of a coelenteramide analogue (1 μg/μl in anhydrous methanol). The mixture was allowed to stand 4° C. for 16 hours to prepare semi-synthetic gFP-like protein (hereinafter sometimes simply referred to as “semi-synthetic gFP”).
as §1

T1 sequence (P07164 other isoform, or with tags, fused parts or gaps with the stated changes): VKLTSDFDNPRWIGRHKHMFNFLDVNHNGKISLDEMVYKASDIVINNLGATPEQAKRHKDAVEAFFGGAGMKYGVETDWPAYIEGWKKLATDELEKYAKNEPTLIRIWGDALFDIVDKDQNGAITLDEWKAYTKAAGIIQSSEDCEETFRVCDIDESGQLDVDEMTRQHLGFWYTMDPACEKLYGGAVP

In the case of O=C(Cc1ccc(O)cc1)Nc1ncc(-c2ccc(O)cc2)nc1-c1cc2sccc2s1 [Compound 4k, 2-(4-Hydroxyphenyl)-N-[5-(4-hydroxyphenyl)-3-(thieno[3,2-b]thiophen-2-yl)pyrazin-2-yl]acetamide], the Fluorescence intensity (apoaequorin [1]) is reported as 148.2 rlu, the “Semi-synthetic BFP (Buffer containing CaCl2) Maximum fluorescence wavelength λmax (nm)” value (“Semi-synthetic BFP” for short) (apoaequorin [1]) is reported as 538.5 nm and the “Coelenteramide (Buffer containing CaCl2) Fluorescence intensity (rlu)” value [2] is reported as 9.7 rlu. The “Coelenteramide (Buffer containing CaCl2) Maximum fluorescence wavelength λmax (nm)” value [2] was 491.0 nm, the “Coelenteramide (EDTA-containing buffer) Fluorescence intensity (rlu)” value [2] was 10.3 rlu and the “Coelenteramide (EDTA-containing buffer) Maximum fluorescence wavelength λmax (nm)” value [2] was 487.5 nm. The “Semi-synthetic gFP (EDTA-containing buffer) Fluorescence intensity (rlu)” value (shortened to “Semi-synthetic gFP … (rlu)”) (apoaequorin [3]) was 139.9 rlu and the “Semi-synthetic gFP (EDTA-containing buffer) Maximum fluorescence wavelength λmax (nm)” value (“Semi-synthetic gFP … (nm)” below) (apoaequorin [3]) was 532.0 nm.

For O=C(Cc1ccc(O)cc1)Nc1ncc(-c2ccc(O)cc2)nc1-c1ccccc1 [Compound 4a, 2-(4-Hydroxyphenyl)-N-[5-(4-hydroxyphenyl)-3-phenylpyrazin-2-yl]acetamide], the Fluorescence intensity (apoaequorin [1]) was 148.9 rlu, the “Semi-synthetic BFP” value (apoaequorin [1]) was 507.5 nm and the “Coelenteramide (Buffer containing CaCl2) Fluorescence intensity (rlu)” value [2] was 2.0 rlu. For the same compound, the “Coelenteramide (Buffer containing CaCl2) Maximum fluorescence wavelength λmax (nm)” value [2] was 467.5 nm, the “Coelenteramide (EDTA-containing buffer) Fluorescence intensity (rlu)” value [2] was 1.9 rlu and the “Coelenteramide (EDTA-containing buffer) Maximum fluorescence wavelength λmax (nm)” value [2] was 471.0 nm. The “Semi-synthetic gFP … (rlu)” value (apoaequorin [3]) was 82.9 rlu and the “Semi-synthetic gFP … (nm)” value (apoaequorin [3]) was 521.5 nm.

With O=C(Cc1ccc(O)cc1)Nc1ncc(-c2ccc(O)cc2)nc1-c1csc2ccccc12 [Compound 4i, N-[3-(Benzo[b]thiophen-3-yl)-5-(4-hydroxyphenyl)pyrazin-2-yl]-2-(4-hydroxyphenyl) acetamide] the Fluorescence intensity (apoaequorin [1]) was 80.0 rlu, the “Semi-synthetic BFP” value (apoaequorin [1]) was 494.0 nm and the “Coelenteramide (Buffer containing CaCl2) Fluorescence intensity (rlu)” value [2] was 11.8 rlu. For the same compound, the “Coelenteramide (Buffer containing CaCl2) Maximum fluorescence wavelength λmax (nm)” value [2] was 468.0 nm, the “Coelenteramide (EDTA-containing buffer) Fluorescence intensity (rlu)” value [2] was 12.1 rlu and the “Coelenteramide (EDTA-containing buffer) Maximum fluorescence wavelength λmax (nm)” value [2] was 471.5 nm. The “Semi-synthetic gFP … (rlu)” value (apoaequorin [3]) was 106.5 rlu and the “Semi-synthetic gFP … (nm)” value (apoaequorin [3]) was 512.5 nm.

In the case of O=C(Cc1ccc(O)cc1)Nc1ncc(-c2ccc(O)cc2)nc1C#Cc1ccccc1 [Compound 4p, 2-(4-Hydroxyphenyl)-N-[5-(4-hydroxyphenyl)-3-(phenylethynyl)pyrazin-2-yl]acetamide], the Fluorescence intensity (apoaequorin [1]) is reported as 70.0 rlu, the “Semi-synthetic BFP” value (apoaequorin [1]) is reported as 548.5 nm and the “Coelenteramide (Buffer containing CaCl2) Fluorescence intensity (rlu)” value [2] is reported as 5.4 rlu. For the same compound, the “Coelenteramide (Buffer containing CaCl2) Maximum fluorescence wavelength λmax (nm)” value [2] was 484.5 nm, the “Coelenteramide (EDTA-containing buffer) Fluorescence intensity (rlu)” value [2] was 5.3 rlu and the “Coelenteramide (EDTA-containing buffer) Maximum fluorescence wavelength λmax (nm)” value [2] was 476.0 nm. For the same compound, the “Semi-synthetic gFP … (rlu)” value (apoaequorin [3]) was 21.1 rlu and the “Semi-synthetic gFP … (nm)” value (apoaequorin [3]) was 523.0 nm.

For O=C(Cc1ccc(O)cc1)Nc1ncc(-c2ccc(O)cc2)nc1-c1ccsc1 [Compound 4g, 2-(4-Hydroxyphenyl)-N-[5-(4-hydroxyphenyl)-3-(thiophen-3-yl)pyrazin-2-yl]acetamide], the Fluorescence intensity (apoaequorin [1]) was 195.7 rlu, the “Semi-synthetic BFP” value (apoaequorin [1]) was 501.5 nm and the “Coelenteramide (Buffer containing CaCl2) Fluorescence intensity (rlu)” value [2] was 6.1 rlu. For the same compound, the “Coelenteramide (Buffer containing CaCl2) Maximum fluorescence wavelength λmax (nm)” value [2] was 470.5 nm, the “Coelenteramide (EDTA-containing buffer) Fluorescence intensity (rlu)” value [2] was 5.5 rlu and the “Coelenteramide (EDTA-containing buffer) Maximum fluorescence wavelength λmax (nm)” value [2] was 473.0 nm. For the same compound, the “Semi-synthetic gFP … (rlu)” value (apoaequorin [3]) was 108.5 rlu and the “Semi-synthetic gFP … (nm)” value (apoaequorin [3]) was 512.5 nm.

With C=C(c1ccccc1)c1nc(-c2ccc(O)cc2)cnc1NC(=O)Cc1ccc(O)cc1 [Compound 4c, 2-(4-Hydroxyphenyl)-N-[5-(4-hydroxyphenyl)-3-(1-phenylvinyl)pyrazin-2-yl]acetamide] the Fluorescence intensity (apoaequorin [1]) was 25.6 rlu, the “Semi-synthetic BFP” value (apoaequorin [1]) was 492.5 nm and the “Coelenteramide (Buffer containing CaCl2) Fluorescence intensity (rlu)” value [2] was 12.4 rlu. The “Coelenteramide (Buffer containing CaCl2) Maximum fluorescence wavelength λmax (nm)” value [2] was 471.0 nm, the “Coelenteramide (EDTA-containing buffer) Fluorescence intensity (rlu)” value [2] was 11.8 rlu and the “Coelenteramide (EDTA-containing buffer) Maximum fluorescence wavelength λmax (nm)” value [2] was 475.5 nm. The “Semi-synthetic gFP … (rlu)” value (apoaequorin [3]) was 32.1 rlu and the “Semi-synthetic gFP … (nm)” value (apoaequorin [3]) was 499.0 nm.

In the case of O=C(Cc1ccc(O)cc1)Nc1ncc(-c2ccc(O)cc2)nc1-c1ccc2ccccc2c1 [Compound 4e, 2-(4-Hydroxyphenyl)-N-[5-(4-hydroxyphenyl)-3-(naphthalen-2-yl)pyrazin-2-yl]acetamide], the Fluorescence intensity (apoaequorin [1]) is reported as 85.6 rlu, the “Semi-synthetic BFP” value (apoaequorin [1]) is reported as 492.5 nm and the “Coelenteramide (Buffer containing CaCl2) Fluorescence intensity (rlu)” value [2] is reported as 28.6 rlu. The “Coelenteramide (Buffer containing CaCl2) Maximum fluorescence wavelength λmax (nm)” value [2] was 478.0 nm, the “Coelenteramide (EDTA-containing buffer) Fluorescence intensity (rlu)” value [2] was 28.9 rlu and the “Coelenteramide (EDTA-containing buffer) Maximum fluorescence wavelength λmax (nm)” value [2] was 478.0 nm. For the same compound, the “Semi-synthetic gFP … (rlu)” value (apoaequorin [3]) was 72.6 rlu and the “Semi-synthetic gFP … (nm)” value (apoaequorin [3]) was 487.0 nm.

In the case of O=C(Cc1ccc(O)cc1)Nc1cnc(-c2ccc(O)cc2)cn1 [Compound 4s, 2-(4-Hydroxyphenyl)-N-[5-(4-hydroxyphenyl)pyrazin-2-yl]acetamide], the Fluorescence intensity (apoaequorin [1]) is reported as 22.1 rlu, the “Semi-synthetic BFP” value (apoaequorin [1]) is reported as 408.5 nm and the “Coelenteramide (Buffer containing CaCl2) Fluorescence intensity (rlu)” value [2] is reported as 2.0 rlu. For the same compound, the “Coelenteramide (Buffer containing CaCl2) Maximum fluorescence wavelength λmax (nm)” value [2] was 468.5 nm, the “Coelenteramide (EDTA-containing buffer) Fluorescence intensity (rlu)” value [2] was 1.9 rlu and the “Coelenteramide (EDTA-containing buffer) Maximum fluorescence wavelength λmax (nm)” value [2] was 457.5 nm. For the same compound, the “Semi-synthetic gFP … (rlu)” value (apoaequorin [3]) was 106.4 rlu and the “Semi-synthetic gFP … (nm)” value (apoaequorin [3]) was 460.0 nm.

With CC(C(=O)Nc1ncc(-c2ccc(O)cc2)nc1Cc1ccccc1)c1ccc(O)cc1 (stereo not shown) [Compound 4w, N-[3-Benzyl-5-(4-hydroxyphenyl)pyrazin-2-yl]-2-(4-hydroxyphenyl)propanamide] the Fluorescence intensity (apoaequorin [1]) was 181.4 rlu, the “Semi-synthetic BFP” value (apoaequorin [1]) was 466.0 nm and the “Coelenteramide (Buffer containing CaCl2) Fluorescence intensity (rlu)” value [2] was 1.4 rlu. The “Coelenteramide (Buffer containing CaCl2) Maximum fluorescence wavelength λmax (nm)” value [2] was 450.5 nm, the “Coelenteramide (EDTA-containing buffer) Fluorescence intensity (rlu)” value [2] was 1.3 rlu and the “Coelenteramide (EDTA-containing buffer) Maximum fluorescence wavelength λmax (nm)” value [2] was 451.0 nm. The “Semi-synthetic gFP … (rlu)” value (apoaequorin [3]) was 54.6 rlu and the “Semi-synthetic gFP … (nm)” value (apoaequorin [3]) was 487.0 nm.

In the case of O=C(Cc1ccc(O)cc1)Nc1ncc(-c2ccc(O)cc2)nc1CCc1ccccc1 [Compound 4r, 2-(4-Hydroxyphenyl)-N-[5-(4-hydroxyphenyl)-3-phenethylpyrazin-2-yl]acetamide], the Fluorescence intensity (apoaequorin [1]) is reported as 159.9 rlu, the “Semi-synthetic BFP” value (apoaequorin [1]) is reported as 468.0 nm and the “Coelenteramide (Buffer containing CaCl2) Fluorescence intensity (rlu)” value [2] is reported as 10.2 rlu. The “Coelenteramide (Buffer containing CaCl2) Maximum fluorescence wavelength λmax (nm)” value [2] was 483.0 nm, the “Coelenteramide (EDTA-containing buffer) Fluorescence intensity (rlu)” value [2] was 10.3 rlu and the “Coelenteramide (EDTA-containing buffer) Maximum fluorescence wavelength λmax (nm)” value [2] was 481.0 nm. For the same compound, the “Semi-synthetic gFP … (rlu)” value (apoaequorin [3]) was 176.4 rlu and the “Semi-synthetic gFP … (nm)” value (apoaequorin [3]) was 468.0 nm.

In the case of O=C(Cc1ccc(O)cc1)Nc1ncc(-c2ccc(O)cc2)nc1-c1cc2sc3ccsc3c2s1 [Compound 4l, 2-(4-Hydroxyphenyl)-N-[5-(4-hydroxyphenyl)-3-(thieno[3,2-b:2′,3′-d]thiophen-2-yl)pyrazin-2-yl]acetamide], the Fluorescence intensity (apoaequorin [1]) is reported as 63.5 rlu, the “Semi-synthetic BFP” value (apoaequorin [1]) is reported as 468.0 nm and the “Coelenteramide (Buffer containing CaCl2) Fluorescence intensity (rlu)” value [2] is reported as 8.8 rlu. The “Coelenteramide (Buffer containing CaCl2) Maximum fluorescence wavelength λmax (nm)” value [2] was 523.0 nm, the “Coelenteramide (EDTA-containing buffer) Fluorescence intensity (rlu)” value [2] was 9.3 rlu and the “Coelenteramide (EDTA-containing buffer) Maximum fluorescence wavelength λmax (nm)” value [2] was 523.5 nm. For the same compound, the “Semi-synthetic gFP … (rlu)” value (apoaequorin [3]) was 140.5 rlu and the “Semi-synthetic gFP … (nm)” value (apoaequorin [3]) was 524.5 nm.
